Consider two molecules from patent publication US7173063B1, “Topoisomerase poisons for the treatment of proliferative disorders” (Fred Hutchinson Cancer Research Center, priority 2000, dated 2007).

For one test, the target named is T1, human Topo I (Homo sapiens, UniProt P11387).
T1 construct: expressed in transfected cells; host or cells: S. cerevisiae BY4705 (S288C background), plasmid phTOP1 under the GAL promoter, vector pRS416
T1 sequence (P11387 2-765): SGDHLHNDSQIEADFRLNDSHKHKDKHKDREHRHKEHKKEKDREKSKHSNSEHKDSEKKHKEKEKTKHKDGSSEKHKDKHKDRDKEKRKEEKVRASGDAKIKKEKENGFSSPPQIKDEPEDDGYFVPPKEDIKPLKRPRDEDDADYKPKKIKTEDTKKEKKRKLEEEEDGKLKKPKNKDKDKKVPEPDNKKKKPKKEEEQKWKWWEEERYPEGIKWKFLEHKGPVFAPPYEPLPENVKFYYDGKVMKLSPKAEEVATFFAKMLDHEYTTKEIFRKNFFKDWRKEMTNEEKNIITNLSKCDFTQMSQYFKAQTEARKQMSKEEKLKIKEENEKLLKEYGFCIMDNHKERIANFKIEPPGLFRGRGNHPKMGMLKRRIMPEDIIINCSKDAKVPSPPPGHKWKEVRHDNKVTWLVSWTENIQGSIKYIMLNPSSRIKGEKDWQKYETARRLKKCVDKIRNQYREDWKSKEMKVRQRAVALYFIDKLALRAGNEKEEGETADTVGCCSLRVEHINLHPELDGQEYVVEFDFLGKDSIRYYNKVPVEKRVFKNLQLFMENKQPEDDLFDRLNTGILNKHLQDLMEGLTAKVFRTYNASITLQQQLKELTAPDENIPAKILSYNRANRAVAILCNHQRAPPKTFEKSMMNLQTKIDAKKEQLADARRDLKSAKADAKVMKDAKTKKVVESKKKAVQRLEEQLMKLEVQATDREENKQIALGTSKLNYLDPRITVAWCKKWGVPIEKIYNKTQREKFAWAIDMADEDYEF
The test can be described thus: Toxicity in yeast overexpressing human Topo I (hTOP1) or htop1-vac mutant. In kind it is cell-based. As to conditions: GAL promoter, galactose-induced, vs vector. The source says: The strains are derived from the A364a genetic background, with the exception of BY4705, which is derived from the S288C background. Gene disruptions were generated by PCR fragment directed replacement (Baudin, et al., Nucleic Acids Research 21: 3329–30 (1993), Guldener, et al., Nucleic Acids Research 24: 2519–24 (1996)). Yeast overexpressing topoisomerase II was constructed by a PCR fragment directed promoter replacement of the topoisomerase II promoter with the yeast GPD promoter flanked upstream by the URA3 marker. All strains (except BY4705) bear the pleitropic drug sensitizing mutations erg6, pdr1, and pdr3 (Balzi, et al., Journal of Bioenergetics & Biomembranes 27: 71–6 (1995), Delaveau, et al, Molecular & General Genetics 244: 501–11 (1994), Gaber, et al., Molecular & Cellular Biology 9: 3447–56 (1989), Saunders, et al., Canadian Journal of Genetics & Cytology, 24: 493–503 (1982). Subik, et al, Current Genetics 10: 665–70 (1986)). The haploid yeast strain BY4705 (Brachmann, et al., Yeast 14: 115–32 (1998)) was used in the experiments described in FIG. 5. Plasmids expressing yeast or human topoisomerase I genes under the GAL promoter (Knab, et al., Journal of Biological Chemistry 268: 22322–30 (1993). Knab, et al., Journal of Biological Chemistry 270: 6141–8 (1995)) were transformed into BY4705 using standard procedures. […]

A further test concerns the target T2, yeast Topo I (Saccharomyces cerevisiae, UniProt P04786).
T2 construct: expressed in transfected cells; host or cells: S. cerevisiae BY4705 (S288C background), plasmid pyTOP1 under the GAL promoter, vector pRS416
T2 sequence (P04786 1-769): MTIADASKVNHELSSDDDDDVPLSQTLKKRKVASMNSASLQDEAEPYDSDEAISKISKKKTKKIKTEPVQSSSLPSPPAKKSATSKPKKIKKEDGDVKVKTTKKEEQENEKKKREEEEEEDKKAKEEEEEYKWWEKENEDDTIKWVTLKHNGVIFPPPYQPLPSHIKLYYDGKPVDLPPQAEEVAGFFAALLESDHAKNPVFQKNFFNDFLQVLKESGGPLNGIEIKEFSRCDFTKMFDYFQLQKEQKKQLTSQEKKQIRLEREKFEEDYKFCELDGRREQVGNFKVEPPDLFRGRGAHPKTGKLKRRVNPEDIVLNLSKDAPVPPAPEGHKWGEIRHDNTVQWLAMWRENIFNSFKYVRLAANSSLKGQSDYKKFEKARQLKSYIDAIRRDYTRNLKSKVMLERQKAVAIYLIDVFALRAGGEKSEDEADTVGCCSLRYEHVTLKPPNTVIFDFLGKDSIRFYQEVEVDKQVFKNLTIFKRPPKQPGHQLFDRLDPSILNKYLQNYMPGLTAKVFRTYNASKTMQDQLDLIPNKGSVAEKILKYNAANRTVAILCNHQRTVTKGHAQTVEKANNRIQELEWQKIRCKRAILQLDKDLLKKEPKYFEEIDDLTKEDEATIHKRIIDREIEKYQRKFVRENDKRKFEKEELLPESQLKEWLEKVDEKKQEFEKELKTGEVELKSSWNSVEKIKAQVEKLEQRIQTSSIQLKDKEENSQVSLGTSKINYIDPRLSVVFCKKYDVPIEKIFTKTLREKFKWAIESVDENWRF
The test can be described thus: Toxicity in yeast overexpressing yeast Topo I (yTOP1) or ytop1-vac mutant. In kind it is cell-based. The note with it: GAL promoter, galactose-induced, vs vector. The source says: The strains are derived from the A364a genetic background, with the exception of BY4705, which is derived from the S288C background. Gene disruptions were generated by PCR fragment directed replacement (Baudin, et al., Nucleic Acids Research 21: 3329–30 (1993), Guldener, et al., Nucleic Acids Research 24: 2519–24 (1996)). Yeast overexpressing topoisomerase II was constructed by a PCR fragment directed promoter replacement of the topoisomerase II promoter with the yeast GPD promoter flanked upstream by the URA3 marker. All strains (except BY4705) bear the pleitropic drug sensitizing mutations erg6, pdr1, and pdr3 (Balzi, et al., Journal of Bioenergetics & Biomembranes 27: 71–6 (1995), Delaveau, et al, Molecular & General Genetics 244: 501–11 (1994), Gaber, et al., Molecular & Cellular Biology 9: 3447–56 (1989), Saunders, et al., Canadian Journal of Genetics & Cytology, 24: 493–503 (1982). Subik, et al, Current Genetics 10: 665–70 (1986)). The haploid yeast strain BY4705 (Brachmann, et al., Yeast 14: 115–32 (1998)) was used in the experiments described in FIG. 5. Plasmids expressing yeast or human topoisomerase I genes under the GAL promoter (Knab, et al., Journal of Biological Chemistry 268: 22322–30 (1993). Knab, et al., Journal of Biological Chemistry 270: 6141–8 (1995)) were transformed into BY4705 using standard procedures.
Yeast toxicity assays were performed essentially as follows: Exponentially growing cultures of the appropriate strains were diluted in synthetic complete media to a concentration of 7.4×10^4 cells/mL, and aliquots (135 μL) were transferred to each well of clear flat-bottomed 96 well plates. Compounds were added in duplicate or triplicate as 15 μL of the appropriate dilution in 5% DMSO. A 15 μL portion of 5% DMSO was added to control wells. […] Cell growth (OD660) in treated wells was plotted as a percentage of the growth in at least four averaged solvent control wells for the same strain. Camptothecin sodium salt (camptothecin Na) was the agent used in all yeast assays as standard.
In this regard, the sensitivity of yeast strains overexpressing either human or yeast topoisomerase I genes (hTOP1 or yTOP1, respectively) under the control of the inducible GAL promoter (see, for example, Knab, et al., Journal of Biological Chemistry 268: 22322–30 (1993); and Knab, et al., Journal of Biological Chemistry 270: 6141–8 (1995)) were used. Additionally, the sensitivity of yeast overexpressing the Topo I-VAC mutant enzyme, containing two amino acid substitutions (htop1-vac and ytop1-vac) that render topoisomerase I insensitive to the action of camptothecin were also examined (see, for example, Knab, et al., Journal of Biological Chemistry 268: 22322–30 (1993); and Knab, et al., Journal of Biological Chemistry 270: 6141–8 (1995)).

As to `O=C(CCl)Nc1ccc(C(=O)N/N=C/c2ccc(Cl)cc2)cc1` [compound Ia], the “effect of hTOP1 overexpression on toxicity” value at human Topo I is reported as “Little or no accentuation”. Further, on yeast Topo I, the “effect of yTOP1 overexpression on toxicity” value is recorded as “Little or no accentuation”.
Regarding `O=c1c(Cl)c(Cl)cnn1CCCl` [compound IIa], the “effect of hTOP1 overexpression on toxicity” value at human Topo I is recorded as “accentuates the toxicity”. In addition, the “effect of yTOP1 overexpression on toxicity” value at yeast Topo I is “accentuates the toxicity”.
